Experimental data published in patent US20260250318A1, “COMPOSITIONS AND METHODS FOR CROSSING THE BLOOD BRAIN BARRIER” (VOYAGER THERAPEUTICS, INC., priority 2022, published 2026).

How the values were obtained:
Settings in all cases: synthetic library passage 3, intravenous, relative to wild-type AAV9
[1] = test system: brain, spinal cord, and DRG of the NHPs; assay: NGS fold enrichment of synthetic library (passage 3) in NHPs, first cross-species screen; format: in vivo, cynomolgus macaques (Macaca fascicularis)
In short: (§1)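 Fold enrichment versus wild-type AAV9 was derived by NGS of RT-PCR-amplified RNA from nervous tissue, collected e.g. 28 days after IV dosing […]. The library (passage 3) was given to two NHPs aged 2-4 years and to 6-8-week BALB/c and C57Bl/6 mice (n=3 each).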

brain [2] = assay: NGS fold enrichment of synthetic library (passage 3) in BALB/c mice, first cross-species screen; format: in vivo
In short: as §1

brain [3] = assay: NGS fold enrichment of synthetic library (passage 3) in C57Bl/6 mice, first cross-species screen; format: in vivo
In short: as §1

[4] = RNA from spinal cord of NHPs, NGS
[5] = RNA from brain of BALB/c mice, NGS
[6] = RNA from brain of C57Bl/6 mice, NGS

Sequence | Fold enrichment over AAV9 in the brain of NHPs ([1]; RNA NGS, brain of NHPs) | Fold enrichment over AAV9 in the spinal cord of NHPs ([1]; RNA NGS, spinal cord of NHPs) | Fold enrichment over AAV9 in the brain of Mice (BALB/c) (brain [2]; RNA NGS, brain of BALB/c mice) | Fold enrichment over AAV9 in the brain of Mice (C57Bl/6) (brain [3]; RNA NGS, brain of C57Bl/6 mice) | Fold enrichment over AAV9 in the brain of NHPs ([1]; RNA from brain of NHPs, NGS) | Fold enrichment over AAV9 in the spinal cord of NHPs [1, 4] | Fold enrichment over AAV9 in the brain of Mice (BALB/c) (brain [2]; [5]) | Fold enrichment over AAV9 in the brain of Mice (C57Bl/6) (brain [3]; [6])
GSGQNQQTVGNPAT | 1.008 fold | 3.014 fold | 0.395 fold | 0.856 fold | – | – | – | –
GPNSYPVSGQKQQT | – | – | – | – | 1.381 fold | 4.040 fold | 0.834 fold | 0.736 fold
GSGQSHRSELNQQT | 1.585 fold | 11.974 fold | 0.256 fold | 0.668 fold | – | – | – | –
GASHMSISGQNQQT | – | – | – | – | 1.284 fold | 0.462 fold | 0.374 fold | 0.404 fold
GAGSIIPSGQNQQT | 2.129 fold | 7.164 fold | 0.249 fold | 0.595 fold | – | – | – | –
GSGQVHQAEVNQQT | 1.825 fold | 0.152 fold | 0.287 fold | 0.436 fold | – | – | – | –
GSFYPSSTGQNQQT | 2.047 fold | 2.374 fold | 0.277 fold | 0.420 fold | – | – | – | –
GPGLSGHSGQNQQT | 1.571 fold | 1.603 fold | 1.297 fold | 1.154 fold | – | – | – | –
GSGHSIRTDQNQQT | 3.074 fold | 15.600 fold | 0.148 fold | 0.229 fold | – | – | – | –
GSGVSTQLLQNQQT | – | – | – | – | 1.367 fold | 2.467 fold | 0.509 fold | 0.928 fold
GSGQNQQMPGLSST | – | – | – | – | 1.204 fold | 1.887 fold | 0.181 fold | 0.234 fold
GSGQNWPALKGQQT | – | – | – | – | 1.284 fold | 2.031 fold | 1.222 fold | 1.101 fold
GGLGSMSSGQNQQT | 2.812 fold | 1.405 fold | 0.822 fold | 1.802 fold | – | – | – | –
GSGQNQQLPHSNLT | 1.521 fold | 1.838 fold | 0.283 fold | 0.442 fold | – | – | – | –
GSGSPRDSIQNQQT | 1.981 fold | 4.914 fold | 0.446 fold | 0.171 fold | – | – | – | –
GSLIGMQSGQNQQT | 1.656 fold | 6.783 fold | 0.392 fold | 0.797 fold | – | – | – | –
GVIVLHGSGQNQQT | 1.682 fold | 14.166 fold | 1.098 fold | 1.074 fold | – | – | – | –
GRGVITSSGQNHQT | 2.004 fold | 0.864 fold | 0.669 fold | 1.656 fold | – | – | – | –
GSGQNQQINHRSPT | – | – | – | – | 1.173 fold | 0.748 fold | 0.220 fold | 0.259 fold
GSSTTIVSGQNHQT | 1.411 fold | 0.000 fold | 0.672 fold | 0.993 fold | – | – | – | –
GSGQNQQHSSKATT | – | – | – | – | 1.345 fold | 12.248 fold | 1.401 fold | 1.350 fold
GSGQNQQRNSDSVT | 1.829 fold | 0.000 fold | 0.842 fold | 1.238 fold | – | – | – | –
GSNLSFQSGQNQQT | 2.122 fold | 5.853 fold | 0.719 fold | 1.087 fold | – | – | – | –
GMTSHSVSGQNQQT | 1.850 fold | 2.732 fold | 0.154 fold | 0.220 fold | – | – | – | –
GSHTLVVSGQNQQT | 1.069 fold | 1.535 fold | 0.748 fold | 0.671 fold | – | – | – | –
GSGIAAQRTQNQQT | 1.665 fold | 2.691 fold | 0.754 fold | 1.062 fold | – | – | – | –
